According to paper PMC8387413 (Bioorganic chemistry, 2021):
Read-outs that look alike come from different tables or passages of the source.

Columns and labels:
[1] = system: γδ T cells; conditions: read-out: EC50 (γδ T cell stimulation), cited from earlier work
[2] = system: γδ T cells; test: T cell proliferation: expansion of γδ T cells from human PBMCs, flow cytometry; type: cell-based; conditions: for EC50: Homo sapiens, T-cell
[3] = system: γδ T cells; type: cell-based; conditions: Homo sapiens, K562, read-out: ELISA EC50 μM (95% CI)
[4] = system: K562 cells; test: K562 viability; type: cell-based; conditions: for IC50: read-out: Toxicity IC50 μM (95% CI); for direct toxicity (in words): K562 cells, 72 hours of exposure, doses of 100 μM or lower
[5] = read-out: Proliferation EC50 μM (95% CI)
[6] = K562 leukemia cells, 72 hours exposure, n=3

SMILES | EC50 [2, 5] | EC50 [3] | IC50 ([4]; Homo sapiens, K562, 72 h) | IC50 [4, 6] | also measured
C/C(=C\COP(=O)(O)OP(=O)(O)O)CO [HMBPP, (E)-4-hydroxy-3-methyl-but-2-enyl diphosphate] |  |  |  |  | EC50 ([1]; in our assays): ~0.0005 µM
C/C(=C\CCP(=O)(OCOC(=O)c1ccc(/N=N/c2ccc(N(C)C)cc2)cc1)Oc1ccc2ccc(=O)oc2c1)CO (stereo not drawn) [Compound 18, ((((E)-5-Hydroxy-4-methylpent-3-en-1-yl) ((2-oxo-2H-chromen-7-yl)oxy)phosphoryl)oxy)methyl 4-((E)-(4-(dimethylamino)phenyl)diazenyl)benzoate] | 0.0005 µM | 0.0075 µM | 27 µM |  | direct toxicity (in words) [4]: toxic at 100 μM
COc1ccc2cc(C(=O)NCCc3ccc(OP(=O)(CC/C=C(\C)COC(C)=O)OCOC(=O)c4ccc(/N=N/c5ccc(N(C)C)cc5)cc4)cc3)c(=O)oc2c1 (stereo not drawn) [Compound 23] |  |  |  | > 100 µM | 
COP(=O)(CC/C=C(\C)CO)OCOC(=O)c1ccc(/N=N/c2ccc(N(C)C)cc2)cc1 (stereo not drawn) [Compound 14, ((((E)-5-Hydroxy-4-methylpent-3-en-1-yl)(methoxy)phosphoryl)oxy)methyl 4-((E)-(4-(dimethylamino)phenyl)diazenyl)benzoate] | 0.099 µM | 0.11 µM | 36 µM |  | EC50 ([2]; read-out: EC50 for stimulation of γδ T cells): 0.11 µM; direct toxicity (in words) [4]: toxic at 100 μM
C/C(=C\CCP(=O)(O)O)CO [C-HMBP] |  |  |  |  | EC50 [1]: ~4 µM
C/C(=C\CCP(=O)(O)Oc1ccc2ccc(=O)oc2c1)CO [Compound 17] |  |  |  | > 100 µM | 
COP(=O)(CC/C=C(\C)CO)Oc1ccc2ccc(=O)oc2c1 (stereo not drawn) [Compound 16, (E)-Methyl (2-oxo-2H-chromen-7-yl)(5-hydroxy-4-methylpent-3-en-1-yl)phosphonate] |  |  |  | > 100 µM | 
COc1ccc2cc(C(=O)NCCc3ccc(OP(=O)(CC/C=C(\C)COC(C)=O)OC)cc3)c(=O)oc2c1 (stereo not drawn) [Compound 22, (E)-5-(Methoxy(4-(2-(7-methoxy-2-oxo-2H-chromene-3-carboxamido)ethyl)phenoxy)phosphoryl) -2-methylpent-2-en-1-yl acetate] | 5.8 µM | > 10 µM | > 100 µM |  | stimulation of proliferation (in words) ([2]; γδ T cells from human PBMCs): did not indicate substantial stimulation of proliferation
